Experiments:
[1] = target: T1, human recombinant HDAC1 (Homo sapiens, UniProt Q13547); assay: HDAC1 enzyme activity inhibition assay (in vitro, fluorimetric); format: biochemical; conditions: human recombinant HDAC1, fluorimetric kit, 30° C. 60 minutes
T1 construct: purchased Enzo Life Science BML-SE456
Procedure, shortened: (§1)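 IC50 values derive from fluorescence (Ex 360, Em 460) after developer treatment (30 min) of reactions of recombinant human HDAC1 or HDAC6 with 10 μM Fluor de Lys-SIRT1 substrate (60 min, 30 °C). Compounds were serially diluted 5-fold; 0.3 μg enzyme was used for HDAC1, with HDAC6 tested identically.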

[2] = target: T2, human recombinant HDAC6 (Homo sapiens, UniProt Q9UBN7); assay: HDAC6 enzyme activity inhibition assay (in vitro, fluorimetric); format: biochemical; conditions: for HDAC6 selectivity (fold): HDAC6 selectivity over HDAC1; for IC50: human recombinant HDAC6, fluorimetric kit, same protocol as HDAC1
T2 construct: purchased Calbiochem 382180
T2 sequence (Q9UBN7 1-1215): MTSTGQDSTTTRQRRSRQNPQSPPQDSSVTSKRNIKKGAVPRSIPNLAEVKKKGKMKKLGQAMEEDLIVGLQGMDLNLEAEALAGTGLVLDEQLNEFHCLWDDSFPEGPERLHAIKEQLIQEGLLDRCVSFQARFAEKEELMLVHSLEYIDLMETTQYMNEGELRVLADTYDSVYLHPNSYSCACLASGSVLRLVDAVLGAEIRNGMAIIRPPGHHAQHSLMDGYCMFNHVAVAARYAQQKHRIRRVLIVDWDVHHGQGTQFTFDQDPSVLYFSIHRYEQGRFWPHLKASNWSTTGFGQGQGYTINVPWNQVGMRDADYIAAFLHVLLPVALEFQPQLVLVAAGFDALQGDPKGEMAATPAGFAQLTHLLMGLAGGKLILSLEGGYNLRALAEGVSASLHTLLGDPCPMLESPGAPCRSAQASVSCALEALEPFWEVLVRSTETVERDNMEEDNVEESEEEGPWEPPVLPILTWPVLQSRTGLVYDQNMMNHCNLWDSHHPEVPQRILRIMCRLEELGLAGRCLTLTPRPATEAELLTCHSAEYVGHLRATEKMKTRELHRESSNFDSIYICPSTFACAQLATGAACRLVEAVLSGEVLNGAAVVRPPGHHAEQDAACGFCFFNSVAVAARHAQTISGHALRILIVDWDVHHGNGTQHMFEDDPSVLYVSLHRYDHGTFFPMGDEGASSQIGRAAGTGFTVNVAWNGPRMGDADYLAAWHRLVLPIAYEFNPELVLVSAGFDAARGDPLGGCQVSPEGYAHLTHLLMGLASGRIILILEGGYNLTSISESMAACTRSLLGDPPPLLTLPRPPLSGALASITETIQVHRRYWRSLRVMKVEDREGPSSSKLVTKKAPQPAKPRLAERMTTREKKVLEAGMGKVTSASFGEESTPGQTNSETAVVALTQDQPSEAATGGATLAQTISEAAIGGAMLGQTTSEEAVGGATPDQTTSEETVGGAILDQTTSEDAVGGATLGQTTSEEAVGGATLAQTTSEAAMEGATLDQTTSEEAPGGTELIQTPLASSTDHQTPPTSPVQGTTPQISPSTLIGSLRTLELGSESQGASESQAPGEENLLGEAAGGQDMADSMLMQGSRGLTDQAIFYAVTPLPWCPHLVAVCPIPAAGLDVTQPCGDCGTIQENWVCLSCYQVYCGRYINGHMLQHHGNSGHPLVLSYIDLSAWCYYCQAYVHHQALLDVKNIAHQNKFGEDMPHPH
Procedure, shortened: as §1

T1 sequence (Q13547 whole entry): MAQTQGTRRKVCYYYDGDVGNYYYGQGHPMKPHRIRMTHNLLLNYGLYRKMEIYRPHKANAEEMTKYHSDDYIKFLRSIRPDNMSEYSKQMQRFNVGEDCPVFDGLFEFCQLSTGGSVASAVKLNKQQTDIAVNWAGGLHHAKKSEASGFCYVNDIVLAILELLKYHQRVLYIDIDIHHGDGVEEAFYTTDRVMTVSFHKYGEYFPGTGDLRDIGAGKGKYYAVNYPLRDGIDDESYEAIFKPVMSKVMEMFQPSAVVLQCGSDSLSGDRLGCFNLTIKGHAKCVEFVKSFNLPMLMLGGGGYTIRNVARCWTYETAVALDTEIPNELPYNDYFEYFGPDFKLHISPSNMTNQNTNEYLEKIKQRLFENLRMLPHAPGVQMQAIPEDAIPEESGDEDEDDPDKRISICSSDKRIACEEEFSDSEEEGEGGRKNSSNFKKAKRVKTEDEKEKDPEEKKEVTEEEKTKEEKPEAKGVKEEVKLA

Row | SMILES | IC50 [1] | HDAC6 selectivity (fold) [2] | IC50 [2]
1 | CC(C)N1CCN(Cc2cccc(CN3[C@H](C)CN(Cc4ccc(C(=O)NO)cc4)C[C@@H]3C)c2)CC1 [Compound 430, N-hydroxy-4-(((3R,5S)-4-(3-((4-isopropylpiperazin-1-yl)methyl)benzyl)-3,5-dimethylpiperazin-1-yl)methyl)benzamide] | 4.5 µM | 55 fold | 82 nM
2 | C[C@@H]1CN(Cc2ccccc2)C[C@H](C)N1Cc1ccc(/C=C/C(=O)NO)cc1 [Compound 175, (E)-3-(4-(((2S,6R)-4-benzyl-2,6-dimethylpiperazin-1-yl)methyl)phenyl)-N-hydroxyacrylamide] | 6.1 µM | 90 fold | 68 nM
3 | C[C@@H]1CN(Cc2ccc(/C=C/C(=O)NO)cc2)C[C@H](C)N1C(=O)Cc1ccccc1 [Compound 323, (E)-3-(4-(((3R,5S)-3,5-dimethyl-4-(2-phenylacetyl)piperazin-1-yl)methyl)phenyl)-N-hydroxyacrylamide] | > 10 µM | >11 fold | 921 nM
4 | C[C@@H]1CN(S(=O)(=O)c2ccc(C(=O)NO)cc2)C[C@H](C)N1Cc1ccccc1 [Compound 818, 4-(((3R,5S)-4-benzyl-3,5-dimethylpiperazin-1-yl)sulfonyl)-N-hydroxybenzamide] | > 10 µM | >11 fold | 870 nM
5 | C[C@@H]1CN(Cc2ccc(C3=CCC(C)(C)CC3)cc2)C[C@H](C)N1Cc1ccc(C(=O)NO)cc1 [Compound 400, 4-(((2S,6R)-4-((4′,4′-dimethyl-2′,3′,4′,5′-tetrahydro-[1,1′-biphenyl]-4-yl)methyl)-2,6-dimethylpiperazin-1-yl)methyl)-N-hydroxybenzamide] | 11.3 µM | 4 fold | 2820 nM
6 | C[C@@H]1CN(S(=O)(=O)c2ccc(Cl)cc2)C[C@H](C)N1Cc1ccc(C(=O)NO)cc1 [Compound 109, 4-(((2S,6R)-4-((4-chlorophenyl)sulfonyl)-2,6-dimethylpiperazin-1-yl)methyl)-N-hydroxybenzamide] | 5.1 µM | 67 fold | 75 nM
7 | C[C@@H]1CN(Cc2ccc(C(=O)NO)cc2)C[C@H](C)N1Cc1ccccc1C1=CCN(S(C)(=O)=O)CC1 [Compound 481, 4-(((3R,5S)-3,5-dimethyl-4-(2-(1-(methylsulfonyl)-1,2,3,6-tetrahydropyridin-4-yl)benzyl)piperazin-1-yl)methyl)-N-hydroxybenzamide] | 16.2 µM | 153 fold | 106 nM
8 | C[C@@H]1CN(Cc2ccccc2C2=CCC(C)(C)CC2)C[C@H](C)N1Cc1ccc(C(=O)NO)cc1 [Compound 352, 4-(((2S,6R)-4-((4′,4′-dimethyl-2′,3′,4′,5′-tetrahydro-[1,1′-biphenyl]-2-yl)methyl)-2,6-dimethylpiperazin-1-yl)methyl)-N-hydroxybenzamide] | 13.8 µM | >13 fold | 1060 nM
9 | C[C@@H]1CN(Cc2ccc(C(=O)NO)cc2)C[C@H](C)N1Cc1cccc(OCC2CCN(CC(C)(C)F)CC2)c1 [Compound 380, 4-(((3R,5S)-4-(3-((1-(2-fluoro-2-methylpropyl)piperidin-4-yl)methoxy)benzyl)-3,5-dimethylpiperazin-1-yl)methyl)-N-hydroxybenzamide] | > 10 µM | >62 fold | 162 nM
10 | C[C@@H]1CN(Cc2ccc(C(=O)NO)cc2)C[C@H](C)N1Cc1ccco1 [Compound 145, 4-(((3R,5S)-4-(furan-2-ylmethyl)-3,5-dimethylpiperazin-1-yl)methyl)-N-hydroxybenzamide] | 17.1 µM | 519 fold | 33 nM
11 | C[C@@H]1CN(Cc2ccc(C(=O)NO)cc2)C[C@H](C)N1Cc1ccccc1-c1ccoc1 [Compound 328, 4-(((3R,5S)-4-(2-(furan-3-yl)benzyl)-3,5-dimethylpiperazin-1-yl)methyl)-N-hydroxybenzamide] | 18.7 µM | 183 fold | 102 nM
12 | C[C@@H]1CN(C(=O)c2ccc(Cl)cc2)C[C@H](C)N1Cc1ccc(C(=O)NO)cc1 [Compound 106, 4-(((2S,6R)-4-(4-chlorobenzoyl)-2,6-dimethylpiperazin-1-yl)methyl)-N-hydroxybenzamide] | 7.3 µM | 61 fold | 119 nM
13 | C[C@@H]1CN(Cc2ccc(C(=O)NO)cc2)C[C@H](C)N1C(=O)c1cnccn1 [Compound 404, 4-(((3R,5S)-3,5-dimethyl-4-(pyrazine-2-carbonyl)piperazin-1-yl)methyl)-N-hydroxybenzamide] | 5.5 µM | 30 fold | 182 nM
14 | CC(C)CC(=O)N1[C@H](C)CN(Cc2ccc(C(=O)NO)cc2)C[C@@H]1C [Compound 297, 4-(((3R,5S)-3,5-dimethyl-4-(3-methylbutanoyl)piperazin-1-yl)methyl)-N-hydroxybenzamide] | 5.6 µM | 62 fold | 90 nM
15 | C[C@@H]1CN(C(=O)c2ccccn2)C[C@H](C)N1Cc1ccc(C(=O)NO)cc1 [Compound 111, 4-(((2S,6R)-2,6-dimethyl-4-picolinoylpiperazin-1-yl)methyl)-N-hydroxybenzamide] | > 10 µM | >22 fold | 461 nM
16 | C[C@@H]1CN(CCCCCC(=O)NO)C[C@H](C)N1Cc1ccccc1 [Compound 154, 6-((3R,5S)-4-benzyl-3,5-dimethylpiperazin-1-yl)-N-hydroxyhexanamide] | 8.4 µM | 44 fold | 193 nM
17 | C[C@@H]1CN(Cc2ccc3cc(C(=O)NO)[nH]c3c2)C[C@H](C)N1Cc1ccccc1 [Compound 573, 6-(((3R,5S)-4-benzyl-3,5-dimethylpiperazin-1-yl)methyl)-N-hydroxy-1H-indole-2-carboxamide] | > 10 µM | 36 fold | 1440 nM
18 | CC(=O)N1CCN(Cc2cccc(C(=O)N3[C@H](C)CN(Cc4ccc(C(=O)NO)cc4)C[C@@H]3C)c2)CC1 [Compound 435, 4-(((3R,5S)-4-(3-((4-acetylpiperazin-1-yl)methyl)benzoyl)-3,5-dimethylpiperazin-1-yl)methyl)-N-hydroxybenzamide] | 5.1 µM | 57 fold | 90 nM
19 | C[C@@H]1CN(Cc2ccc(C(=O)NO)cc2)C[C@H](C)N1Cc1ccccc1-c1cccnc1 [Compound 330, 4-(((3R,5S)-3,5-dimethyl-4-(2-(pyridin-3-yl)benzyl)piperazin-1-yl)methyl)-N-hydroxybenzamide] | 18 µM | 749 fold | 24 nM
20 | C[C@@H]1CN(CCc2ccccc2)C[C@H](C)N1Cc1ccc(C(=O)NO)cc1 [Compound 183, 4-(((2S,6R)-2,6-dimethyl-4-phenethylpiperazin-1-yl)methyl)-N-hydroxybenzamide] | > 10 µM | >20 fold | 500 nM
21 | C[C@@H]1CN(Cc2ccc(C(=O)NO)cc2)C[C@H](C)N1C(=O)c1cccs1 [Compound 126, 4-(((3R,5S)-3,5-dimethyl-4-(thiophene-2-carbonyl)piperazin-1-yl)methyl)-N-hydroxybenzamide] | 6.1 µM | 1525 fold | 4 nM
